Measured values as given in the NIST ThermoML archive (doi:10.1016/j.tca.2011.11.036).

Assay: molar heat capacity at constant pressure; xn = mol fraction of the nth substance listed
Conditions: 101 kPa, Liquid, Small sample (50 mg) DSC

NC(N)=O [urea] + C[N+](C)(C)CCO.[Cl-]
x2 = 0.3333
Conditions | molar heat capacity at constant pressure [J/K/mol]
303.15 K | 181.4
308.15 K | 182.2
313.15 K | 183.2
318.15 K | 183.5
323.15 K | 184.5
328.15 K | 185.3
333.15 K | 186.4
338.15 K | 187.4
343.15 K | 188.5
348.15 K | 189.5
353.15 K | 190.8

C[N+](C)(C)CCO.[Cl-] [choline chloride] + OCC(O)CO
x1 = 0.3333
Conditions | molar heat capacity at constant pressure [J/K/mol]
303.15 K | 237.7
308.15 K | 239.1
313.15 K | 240.8
318.15 K | 241.9
323.15 K | 243.5
328.15 K | 244.9
333.15 K | 246.9
338.15 K | 248.4
343.15 K | 250.3
348.15 K | 252.1
353.15 K | 254.3

C[N+](C)(C)CCO.[Cl-] [choline chloride] + OCCO
x1 = 0.3333
Conditions | molar heat capacity at constant pressure [J/K/mol]
303.15 K | 190.8
308.15 K | 192.2
313.15 K | 194
318.15 K | 194.9
323.15 K | 196.4
328.15 K | 197.6
333.15 K | 199.2
338.15 K | 200.6
343.15 K | 202.1
348.15 K | 203.9
353.15 K | 205.6
